What was measured:
[1] = molecular target: T1, Fatty-acid amide hydrolase 1 (Homo sapiens, UniProt O00519); assay: Inhibition of Homo sapiens (human) recombinant fatty acid amide hydrolase assessed as inhibition of [3H]-AEA hydrolysis after 10 min by liquid scintillation counting
T1 sequence (O00519 whole entry): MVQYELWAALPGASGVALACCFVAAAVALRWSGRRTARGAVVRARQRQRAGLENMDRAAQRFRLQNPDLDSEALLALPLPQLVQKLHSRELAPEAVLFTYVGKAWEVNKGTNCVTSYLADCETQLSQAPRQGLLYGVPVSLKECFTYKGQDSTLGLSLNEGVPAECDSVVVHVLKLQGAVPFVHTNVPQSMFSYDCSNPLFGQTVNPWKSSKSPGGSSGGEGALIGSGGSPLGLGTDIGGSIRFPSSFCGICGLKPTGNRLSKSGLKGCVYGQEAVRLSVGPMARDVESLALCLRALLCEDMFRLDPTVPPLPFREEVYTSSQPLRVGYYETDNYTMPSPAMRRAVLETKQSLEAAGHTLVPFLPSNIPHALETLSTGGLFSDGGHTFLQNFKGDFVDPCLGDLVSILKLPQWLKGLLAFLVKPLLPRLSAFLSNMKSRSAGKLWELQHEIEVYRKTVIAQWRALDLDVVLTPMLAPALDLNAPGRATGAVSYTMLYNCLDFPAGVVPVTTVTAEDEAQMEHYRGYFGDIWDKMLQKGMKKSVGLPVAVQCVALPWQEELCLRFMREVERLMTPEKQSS

[2] = molecular target: T2, Monoglyceride lipase (Homo sapiens, UniProt Q99685); assay: Inhibition of Homo sapiens (human) recombinant monoacylglycerol lipase assessed as inhibition of [3H]-2-oleolylglycerol hydrolysis after 10 min by liquid scintillation counting
T2 sequence (Q99685 whole entry): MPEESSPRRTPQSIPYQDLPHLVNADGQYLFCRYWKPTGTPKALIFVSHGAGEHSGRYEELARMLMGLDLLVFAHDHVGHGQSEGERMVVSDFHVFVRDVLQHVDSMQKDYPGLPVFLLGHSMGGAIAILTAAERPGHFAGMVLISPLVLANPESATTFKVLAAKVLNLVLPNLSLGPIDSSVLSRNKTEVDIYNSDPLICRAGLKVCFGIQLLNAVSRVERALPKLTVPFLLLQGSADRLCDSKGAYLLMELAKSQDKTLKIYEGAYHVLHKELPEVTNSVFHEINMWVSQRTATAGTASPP

SMILES	IC50 [1]	IC50 [2]
S=C(NCCc1ccccc1)c1ccc(Cl)cc1Cl	> 1000 µM	79.4 µM
Clc1ccc(CN2CCOCC2)cc1 [4-(4-CHLOROBENZYL)MORPHOLINE]	> 1000 µM	> 1000 µM
Cc1ccc(CC(=S)N2CCOCC2)cc1	49 µM	24 µM
S=C(c1ccc(Br)cc1)N1CCOCC1 [(4-BROMOPHENYL)(MORPHOLINO)METHANETHIONE]	> 1000 µM	31.6 µM
S=C(c1ccccc1Cl)N1CCOCC1	> 1000 µM	20 µM
O=C(c1ccc(-c2ccccc2)cc1)N1CCOCC1	> 1000 µM	> 1000 µM
Clc1ccccc1CN1CCOCC1	> 1000 µM	> 1000 µM
S=C(c1ccc(Cl)c(Cl)c1)N1CCOCC1 [(3,4-DICHLOROPHENYL)(MORPHOLINO)METHANETHIONE]	> 1000 µM	> 1000 µM
S=C(NCCc1ccccc1)c1ccccc1 [N-PHENETHYLBENZOTHIOAMIDE]	> 1000 µM	> 1000 µM
S=C(Cc1ccccc1Cl)N1CCOCC1	> 1000 µM	24.5 µM
S=C(c1ccccc1)N1CCCCC1	> 1000 µM	> 1000 µM
S=C(c1ccc(C2CCCCC2)cc1)N1CCOCC1	> 1000 µM	> 1000 µM
S=C(NCCc1ccccc1)c1ccc(Cl)c(Cl)c1	53.7 µM	75.9 µM
O=[N+]([O-])c1cccc(C(=S)N2CCOCC2)c1	245 µM	9.55 µM
O=C(c1ccc(Cl)cc1)N1CCOCC1 [(4-CHLOROPHENYL)(MORPHOLINO)METHANONE]	> 1000 µM	> 1000 µM
S=C(c1ccccc1)N1CCOCC1 [MORPHOLINO(PHENYL)METHANETHIONE]	> 1000 µM	> 1000 µM
S=C(c1ccc(Cl)cc1Cl)N1CCOCC1 [(2,4-DICHLOROPHENYL)(MORPHOLINO)METHANETHIONE]	> 1000 µM	> 1000 µM
CN(C)c1ccc(C(=S)N2CCOCC2)cc1 [(4-(DIMETHYLAMINO)PHENYL)(MORPHOLINO)METHANETHIONE]	> 1000 µM	> 1000 µM
S=C(NCCc1ccccc1)c1ccccc1Cl	> 1000 µM	166 µM

SMILES	IC50 [1]	IC50 [2]
Oc1ccccc1C(=S)N1CCOCC1 [(2-HYDROXYPHENYL)(MORPHOLINO)METHANETHIONE]	> 1000 µM	60.3 µM
S=C(Cc1ccc(-c2ccccc2)cc1)NCCc1ccccc1	724 µM	537 µM
Oc1ccc(C(=S)NCCc2ccccc2)cc1O	724 µM	525 µM
c1ccc(-c2ccc(CN3CCOCC3)cc2)cc1 [4-(BIPHENYL-4-YLMETHYL)MORPHOLINE]	> 1000 µM	> 1000 µM
S=C(c1cccc(Cl)c1)N1CCOCC1 [(3-CHLOROPHENYL)(MORPHOLINO)METHANETHIONE]	> 1000 µM	> 1000 µM
S=C(NCCc1ccccc1)c1ccc(Br)cc1	> 1000 µM	97.7 µM
Cc1cccc(C(=S)N2CCCCC2)c1	61.7 µM	> 1000 µM
Fc1ccc(C(=S)NCCc2ccccc2)cc1	> 1000 µM	> 1000 µM
COC(=O)c1ccc(C(=S)NCCc2ccccc2)cc1	> 1000 µM	26.3 µM
S=C(NCCc1ccccc1)c1ccc(Cl)cc1	407 µM	437 µM
COC(=O)c1ccc(C(=S)N2CCOCC2)cc1	> 1000 µM	30.9 µM
S=C(c1ccc(Cl)cc1)N1CCOCC1 [(4-CHLOROPHENYL)(MORPHOLINO)METHANETHIONE]	302 µM	77.6 µM
S=C(Cc1ccc(-c2ccccc2)cc1)N1CCOCC1	30.9 µM	5.75 µM
S=C(Cc1ccc(Cl)cc1)N1CCOCC1	77.6 µM	14.8 µM
O=C(c1ccccc1Cl)N1CCOCC1 [(2-CHLOROPHENYL)(MORPHOLINO)METHANONE]	> 1000 µM	> 1000 µM
Oc1ccc(C(=S)N2CCOCC2)cc1 [(4-HYDROXYPHENYL)(MORPHOLINO)METHANETHIONE]	562 µM	204 µM
COc1ccc(CC(=S)N2CCOCC2)cc1OC	> 1000 µM	> 1000 µM
S=C(Cc1ccccc1)N1CCOCC1	> 1000 µM	> 1000 µM
S=C(c1ccc(-c2ccccc2)cc1)N1CCOCC1	30.9 µM	19.5 µM
